These are literature values, as cited in patent US9150582B2, “Composition and method for neuropeptide S receptor (NPSR) antagonists” (RESEARCH TRIANGLE INSTITUTE, priority 2011, dated 2015).

Entries after “also recorded” stand apart in the source; their conditions may differ.

For data set [1] the following is noted: i.c.v.
The target of another data set is T1, NPSR Ile^107 variant (Homo sapiens, UniProt Q6W5P4, N107I).
T1 sequence (Q6W5P4 1-371 N107I): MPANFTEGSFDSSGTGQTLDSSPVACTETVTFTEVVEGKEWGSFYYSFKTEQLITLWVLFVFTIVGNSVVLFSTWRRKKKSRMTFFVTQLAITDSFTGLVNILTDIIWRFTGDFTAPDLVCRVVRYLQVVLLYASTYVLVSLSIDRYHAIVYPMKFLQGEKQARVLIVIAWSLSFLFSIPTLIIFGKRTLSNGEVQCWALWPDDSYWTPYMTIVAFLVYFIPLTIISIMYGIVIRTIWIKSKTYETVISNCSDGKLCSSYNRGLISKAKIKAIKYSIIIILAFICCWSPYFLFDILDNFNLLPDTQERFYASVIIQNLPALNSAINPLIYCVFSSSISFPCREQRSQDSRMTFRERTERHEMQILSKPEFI
Particulars: calcium flux. On the technique in general: Calcium flux is commonly read through the fluorescence of an indicator in the cells.

In data set [2] the test system is basolateral amygdala (BLA). Particulars: 0.1 nM injected into BLA.
For data set [3], the system named is mice. The following applies: elevated plus maze, light dark box, marble burying.
Data set [4] deals with mice. The following applies: 0.1 nMol NPS.
The target in another data set is T2, NPSR-C0Alt (Homo sapiens, UniProt Q6W5P4).
T2 sequence (Q6W5P4 1-377 isoform Q6W5P4-4): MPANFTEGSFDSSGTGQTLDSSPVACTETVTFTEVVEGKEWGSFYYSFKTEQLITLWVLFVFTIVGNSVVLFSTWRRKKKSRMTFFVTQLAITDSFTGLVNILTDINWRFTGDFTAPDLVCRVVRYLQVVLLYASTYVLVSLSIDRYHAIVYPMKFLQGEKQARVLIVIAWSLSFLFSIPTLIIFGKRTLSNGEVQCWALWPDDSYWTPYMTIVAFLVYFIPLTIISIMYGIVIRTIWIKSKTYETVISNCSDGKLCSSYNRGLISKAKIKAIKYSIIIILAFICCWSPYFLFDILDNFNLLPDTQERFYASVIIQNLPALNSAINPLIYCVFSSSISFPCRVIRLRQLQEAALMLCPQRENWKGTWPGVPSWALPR
The following applies: functional assay.

For data set [5], the system named is mice. The following applies: i.c.v.
Data set [6] relates to mice.
For data set [7], the system named is mice. Particulars: i.c.v., habituated and naive mice.

For “NPS: Human Neuropeptide S, 20 residue peptide SFRNGVGTGMKKTSFQRAKS (SEQ ID NO: 1), agonist of NPSR (Human)”, the “performance in novel recognition assays” value in [1] is “dose-dependently improves performance”. Besides, the “enhancement in functional sensitivity, Ile107 variant over Asn107” value with NPSR Ile^107 variant is “five to ten fold enhancement”. In [2], the “anxiolytic activity at low dose” value is recorded as “No anxiolytic activity was observed” and the contextual fear memories result is reported as “significantly reduced contextual fear memories”. Also, the anxiolytic-like behaviors entry in the data set on mice [3] is “anxiolytic-like behaviors”. Also, the “amount of stage 1 and 2 slow wave sleep and REM sleep” value in the data set with mice [4] (compared to saline) was “significantly reduced”. Moreover, the “first hour of wakefulness” value in the data set with mice [4] (mice, saline 45%) was 69%. Also, the “potency at NPSR-C0Alt, lower versus the 107I variant” value with NPSR-C0Alt is given as 30 fold. Moreover, the “formerly extinguished cocaine seeking behaviors” value with mice [5] is given as “dose-dependently increased”. In addition, the “fear response (freezing behavior), administration pre-testing” value in the data set with mice [6] (NPS given pre-testing) was “decreased the fear response”. In the data set on mice [6] (NPS given pre-training), the “fear response, administration pre-training” value is on record as “no effect on fear response”. Also, in the data set with mice [7], the locomotor activity result is on record as “increased locomotor activity; also recorded: increase in locomotor activity”.
